Common to all, as to format: functional, cell-based
For assay [1], the system named is Bel-7402. The assay can be described thus: Cytotoxicity against human Bel7402 cells after 44 hrs by MTT assay. The following applies: Bel-7402, 44 h. (In general: Tetrazolium assays rely on reduction of a dye to a coloured formazan, in cell work by metabolically active cells.)
The next assay has as its system BGC-823. The assay can be described thus: Cytotoxicity against human BGC823 cells after 48 hrs by MTT assay. As to conditions: BGC-823, 48 h.
In a further assay the test system is HL-60. The assay can be described thus: Cytotoxicity against human HL60 cells after 48 to 72 hrs by MTT assay.
The next assay relates to HT-29. Briefly: Cytotoxicity against human HT-29 cells after 48 hrs by MTS assay. As to conditions: HT-29, 48 h.
The next assay concerns HeLa. Briefly: Cytotoxicity against human HeLa cells by MTT assay.
The subject of assay [2] is MCF7. Briefly: Cytotoxicity against human MCF7 cells after 24 hrs by MTT assay. The following applies: MCF7, 24 h.
Assay [3] relates to MCF7. Briefly: Cytotoxicity against human MCF7 cells after 48 hrs by MTS assay. As to conditions: MCF7, 48 h.
The subject of assay [4] is HepG2. Briefly: Cytotoxicity against human HepG2 cells after 48 hrs by BrDU-incorporation based ELISA. As to conditions: HepG2, 48 h.
Assay [5] deals with Bel-7402. Briefly: Cytotoxicity against human Bel7402 cells after 48 hrs by MTT assay. The following applies: Bel-7402, 48 h.
The test system of assay [6] is Bel-7402. Briefly: Cytotoxicity against human Bel7402 cells by MTT assay.
Assay [7] relates to HepG2. Briefly: Cytotoxicity against human HepG2 cells by MTT assay.
The test system of another assay is K562. The assay can be described thus: Cytotoxicity against human K562 cells after 48 to 72 hrs by MTT assay.
The test system of a further assay is A549. The assay can be described thus: Cytotoxicity against human A549 cells after 48 hrs by MTS assay. As to conditions: A549, 48 h.
Assay [8] has as its system HepG2. The assay can be described thus: Cytotoxicity against human HepG2 cells after 44 hrs by MTT assay. The following applies: HepG2, 44 h.

Our source for the IC50 values is ChEMBL document CHEMBL4316584, “All that glitters is not gold: Panning cytotoxic natural products and derivatives with a fused tricyclic backbone by the estimation of their leadlikeness for cancer treatment” (Eur J Med Chem, 2019).

SMILES strings stand for the structures.

The IC50 is the concentration that inhibits the measured activity by half. A high value points to weaker potency in that assay.

`Cc1cc(=O)[nH]c2c1C(=O)c1ccccc1C2=O` [MARCANIN A] came in with an IC50 in the assay on Bel-7402 [1] of 9.54 µM.
The molecule `CC(C)=CCc1c(O)cc2oc3cc(O)ccc3c(=O)c2c1O` displayed an IC50 with BGC-823 of 12.1 µM.
Regarding `COc1cc(O)cc2ccc3cccc(O)c3c12` [MOSCATIN], the midpoint of inhibition in the assay on HL-60, the IC50, lay at 19.2 µM.
In the case of `COc1ccc(-c2nc(Cn3cc(CN4C(=O)c5cccc6cccc(c56)C4=O)nn3)cc3c2[nH]c2ccccc23)cc1OC`, 7.46 µM corresponded to half-maximal inhibition in the assay with HT-29 (IC50).
In turn, `CCOC(=O)c1cc2c3ccccc3n(Cc3ccccc3)c2cn1` displayed an IC50 in the assay with HeLa of 13 µM.
Molecule `CCn1c2cc(OC)ccc2c2ccnc(C)c21` returned an IC50 in the assay with HeLa of 17 µM.
In the assay with HT-29, `COc1cc(-c2nc(Cn3cc(CN4C(=O)c5ccccc5C4=O)nn3)cc3c2[nH]c2ccccc23)cc(OC)c1OC` registered an IC50 of 5.79 µM.
In the assay on MCF7 [2], `CCN(CC)CCCC(C)Nc1c2ccc(Cl)cc2nc2ccc(OC)cc12` (stereo not given) [QUINACRINE] showed an IC50 of 7.5 µM.
`c1ccc2c(c1)ncn2CCCCn1c2ccccc2c2ccccc21`: 5.06 µM corresponded to half-maximal inhibition with MCF7 [3] (IC50).
With `Clc1ccc(-c2nc(Cn3cc(COc4ccc(Br)cc4)nn3)cc3c2[nH]c2ccccc23)cc1`, the midpoint of inhibition in the assay with HT-29, the IC50, lay at 15.6 µM.
Take `c1ccc2nc3ccccc3nc2c1` [PHENAZINE]: in the assay with HepG2 [4], half-maximal inhibition (IC50) was put at 7.8 µM.
The molecule `O=c1c2ccc(O)cc2oc2cc(O)ccc12` returned an IC50 in the assay with BGC-823 of 12.9 µM.
For the molecule `CC(C)=CCc1c(O)c(CC=C(C)C)c2oc3c(O)ccc(O)c3c(=O)c2c1O` [GARTANIN], the IC50 with Bel-7402 [5] came out at 7.78 µM.
On to `CCOC(=O)c1cc2c3ccccc3n(Cc3c(F)c(F)c(F)c(F)c3F)c2cn1`, for which the IC50 in the assay with Bel-7402 [6] came out at 9 µM.
Consider `O=c1c2ccc(O)c(O)c2oc2cccc(O)c12`, for which the IC50 with BGC-823 is 10.1 µM.
`COc1ccc2c3ccnc(C)c3n(C)c2c1`: in the assay with HepG2 [7], the IC50 worked out at 16 µM.
Molecule `COC1=CC(=O)c2c(ccc3cc(O)ccc23)C1=O` had an IC50 in the assay with K562 of 13.8 µM.
In the assay on HeLa, `CCn1c2ccccc2c2cc(C(=O)OC)ncc21` displayed an IC50 of 17 µM.
As for `Cc1cc2ncn(CCCCn3c4ccccc4c4ccccc43)c2cc1C`, in the assay on A549, the IC50 was found to be 19.4 µM.
In the case of `O=C(O)c1cc(O)c2c(c1)C(=O)c1c(O)cccc1C2=O`, in the assay with HepG2 [8], inhibition was half-maximal at 16.3 µM (IC50).
